In assay [1] the test system is Retinal Reductase. Briefly: Assay for Retinal Reductase Activity, rat liver microsomes (to identify B3). It counts as biochemical. The following applies: test compound final 100 μM. Here is the method: The resulting homogenate was successively centrifuged for 30 min. at 10,000 g, 30 min. at 20,000 g, and 15 min. at 30,000 g, and the resulting supernatant was ultracentrifuged for 80 min. at 105,000 g. […] Protein concentrations were determined as described above. […] All stock solution were prepared as above with the following substitutions: 10 mM all trans Retinaldehyde (Sigma R2500) in DMSO—instead of retinol. 200 mM, Nicotinamide adenine dinucleotide phosphate, reduced form, tetrasodium salt (NADPH) (Sigma N7505) in sterile water—instead of NADP. In a two-dram glass vial with screw cap, add the following in order: […] 25 μl diluted Microsomes (final=100 μg)—use boiled Microsomes for controls and regular Microsomes for test samples. […] 3 μl of 10 mM retinaldehyde (final=75 μM) Follow the same incubation and extraction procedure as detailed above. […] Aliquots of 60 μL were injected immediately and analyzed for retinoid content. The chromatography instrumentation consisted of a Waters 600 gradient controller/pump, a Waters 996 Photodiode Array detector and a Waters 474 Scanning Fluorescence detector. Two HPLC protocols were used for retinoid analysis. […] The eluate was monitored for absorbance at 325 nm and fluorescence at 325 ex/480 em. […] B. Barua, “Analysis of Water-Soluble Compounds: Glucuronides”, Methods Enzymol. 189, 136-145 (1990). […] These protocols were selected based on their ability to clearly resolve pertinent retinoid acids, alcohols, aldehydes, and/or esters for each assay and relative quickness of separation. Identification of individual retinoids by HPLC was based on an exact match of the retention time of unknown peaks with that of available authentic retinoid standards and UV spectra analysis (300-400 nm) of unknown peaks against available authentic retinoids.
Background: Microsomes from liver hold many membrane-bound enzymes, among them those of drug oxidation.

The subject of assay [2] is TGase I. Briefly: Transglutaminase (TGase I ELISA) assay in cultured keratinocytes with retinol. It counts as cell-based. The conditions noted are these: Keratinocyte, read-out: Overall TG (IC 50). (In general: ELISA stands for enzyme-linked immunosorbent assay.)
Procedure: An ELISA based TGase I assay, using a TGase I antibody, was used to assess the state of differentiation of the cultured keratinocytes in the examples that follow.
Keratinocytes (cultured as described above) were plated in 96 well plates at a density of 4,000-5,000 cells per well in 200 μl media. After incubation for two to three days, or until cells are ˜50% confluent, the media was changed to media containing test compounds (five replicates per test). The cells were cultured for a further 96 hours after which time the media was aspirated and the plates stored at −70° C. Plates were removed from the freezer, and the cells were washed twice with 2001 μl of 1× PBS. The cells were incubated for one hour at room temperature (RIT) with TBS/5% BSA (wash buffer, bovine serum albumin). Next the TGase primary antibody was added: 50 μp of monoclonal anti-Tgase I Ab B.C. diluted 1:2000 in wash buffer. The primary antibody was incubated for 2 hours at 37° C. and then rinsed 6× with wash buffer. Cells were then incubated with 50 μl of secondary antibody (Fab fragment, peroxidase conjugated anti-mouse IgG obtaining from Amersham) diluted 1:4,000 in wash buffer for two hours at 37° C., then rinsed three times with wash buffer. Following the rinse with washing buffer, the cells were rinsed 3× with PBS. […] TGase levels were determined and expressed as percentage control.
Assay [3] relates to Retinol Dehydrogenase. Briefly: Assay for Retinol Dehydrogenase Activity, rat liver microsomes (to identify B2). In kind it is biochemical. The following applies: ranking among B2 compounds. Here is the method:
The resulting homogenate was successively centrifuged for 30 min. at 10,000 g, 30 min. at 20,000 g, and 15 min. at 30,000 g, and the resulting supernatant was ultracentrifuged for 80 min. at 105,000 g. […] Protein concentrations were determined as described above.
2.4 Assay for Retinol Dehydrogenase Activity (To identify B2)
The following stock solutions were prepared:
50 mM KH2PO4, pH 7.4 buffer, sterile filtered.
10 mM all trans Retinol (Sigma R7632) in DMSO.
200 mM Nicotinamide adenine dinucleotide phosphate, sodium salt (NADP) (Sigma N0505) in sterile water.
40 mM test compound in appropriate solvent (water, buffer, ethanol, chloroform or DMSO).
1:10 dilution of rat liver Microsomes in 50 mM KH2PO4, pH 7.4 buffer (4 ug/ul).
In a two-dram glass vial with screw cap, add the following in order:
Buffer to give a final volume of 400 μl
25 μl diluted Microsomes (final=100 μg)−use boiled Microsomes for controls and regular Microsomes for test samples.
4 μl of 200 mM NADP (final=2 mM)
1 μl of 40 mM test compound (final=100 μM)
8 μl of 10 mM retinol (final=200 μM) […]
Aliquots of 60 μL were injected immediately and analyzed for retinoid content.
The chromatography instrumentation consisted of a Waters 600 gradient controller/pump, a Waters 996 Photodiode Array detector and a Waters 474 Scanning Fluorescence detector. […] The eluate was monitored for absorbance at 325 nm and fluorescence at 325 ex/480 em. […]

`CCCCCCCCCCCCCC(=O)O` [Myristic Acid]: the “% lnhibition Retinal Reductase” value in assay [1] came out at 26%.
For `Oc1cccc2cccnc12` [Hydroxyquinoline, Hydroxyquinoline (Carbostyril)], in assay [2], the IC50 amounted to 364 µM.
In the case of Phosphatidyl ethanolamine, the “% lnhibition Retinal Reductase” value in assay [1] is recorded as 37%.
Still for that read-out and setting: the same measure for `COc1cc(C=O)ccc1O` [Vanillin]: 6%.
Phosphatidyl Choline: in assay [3], the “activity as activator of Retinol Dehydrogenase (in words)” value was “Most preferred as most active activator of”.

These data come from patent US20020168389A1, “Stable skin conditioning compositions containing retinoid boosters” (priority 2000, published 2002).
